Converted amounts (≈) assume the structure as drawn. “And” between values parts separate entries of the source, which are not always exact repeats. Equal entries are not always repeated. “Also recorded” adds a separate entry of the source. Where two headings read alike, the source gives them in different places.
Columns and labels:
Mtb H37Rv [1] = experiment: microbe, parasite or virus in culture; assay type: cell-based, Mycobacterium tuberculosis; conditions: for MIC: Mycobacterium tuberculosis, 336 h
Mtb H37Rv [2] = experiment: Mouse model of TB, pulmonary bacterial load; assay type: in vivo, Balb/c mice; conditions: 25 mg/kg by gavage, 15 administrations (five times per week); vehicle 5.58
From the text: Specific pathogen-free (SPF) male Balb/c mice were purchased from the Institute of Laboratory Animal Sciences at the Chinese Academy of Medical Sciences and Peking Union Medical College. All animal experiments were supervised and approved by the Institutional Animal Care and Use Committee of the Institute of Medicinal Biotechnology. Twenty-six mice (6–8 weeks old, 18–20 g) were infected with Mtb H37Rv (about 100 CFU) via the 099C A4224 Inhalation Exposure System (Glas-col, Terre Haute, IN, United States). At 15 days after inoculum, two mice were anesthetized and decapitated to confirm the success of infection. DCS, INH, IMB-0283, and vehicle (0.5% CMC-Na) were administered through a gavage route (six mice per group). All chemicals were dosed at 25 mg/kg. Mice were sacrificed after 15 administrations (five times per week) to quantify pulmonary bacterial loads via counting CFUs.

DdlA = DdlA (Mycobacterium tuberculosis, UniProt P9WP31); assay type: biochemical; conditions: for Kcat: Vmax divided by enzyme concentration
From the text: The activity of DdlA was monitored by coupling with pyruvate kinase (PK) and lactate dehydrogenase (LDH; Sigma-Aldrich) to detect the release of ADP. […] The assay system was monitored via a Perkin Elmer EnSpire® 2300 Multimode Plate Reader (PerkinElmer, MA, United States) by detecting decreases in NADH.
The calibration curve of the ultraviolet absorption of NADH at 340 nm to its concentrations was fabricated before studying the enzymatic kinetics of DdlA. The kinetic parameters of DldA were determined using serial twofold dilutions of one substrate (from 1 mM to 31.25 μM), while the other substrate was held constant at 1 mM. Km and Vmax values were calculated using non-linear regression of the Michaelis-Menten model in GraphPad Prism 5.0 (GraphPad Software, Inc., San Diego, CA, United States). Kcat was calculated based on the molecular weight of DdlA (42 kDa).

Mtb DdlA = Mtb DdlA (Mycobacterium tuberculosis, UniProt P9WP31); experiment: DdlA inhibition, PK/LDH-coupled assay detecting ADP release (NADH decrease); assay type: biochemical
clinical Mtb strains = experiment: microbe, parasite or virus in culture; assay type: cell-based, Mycobacterium tuberculosis; conditions: for MIC: Mycobacterium tuberculosis
Mtb H37Rv [3] = experiment: Morphology of Mtb by scanning electron microscopy; assay type: cell-based, Mycobacterium tuberculosis; conditions: 0.35 μg/mL
HepG2 cells [4] = system: HepG2 cells
[5] = system: Vero green-monkey kidney cells; conditions: 2 days
[6] = system: Vero green-monkey kidney cells; experiment: Cytotoxicity assay (MTT), Vero; conditions: Vero TC50 relative to H37Rv MIC
HepG2 cells [7] = experiment: Cytotoxicity assay (MTT), HepG2; conditions: for SI: HepG2 TC50 relative to H37Rv MIC
C[C@@H](N)C(=O)O = experiment: purified protein, by the assay type; conditions: pH 8.0; 37.0 °C
[8] = Mtb H37Rv, 2 weeks at 37°C, read-out: MIC
[9] = substrate of DdlA, other substrate at 1 mM
[10] = Dixon plot, Figure 4 panels A, C, substrate ATP inferred, read-out: Ki for DdlA (ATP) (converted)
[11] = Dixon plot, competing substrate ATP, read-out: Ki for DdlA (ATP) (converted)

Sequence of DdlA (P9WP31 whole entry, looked up): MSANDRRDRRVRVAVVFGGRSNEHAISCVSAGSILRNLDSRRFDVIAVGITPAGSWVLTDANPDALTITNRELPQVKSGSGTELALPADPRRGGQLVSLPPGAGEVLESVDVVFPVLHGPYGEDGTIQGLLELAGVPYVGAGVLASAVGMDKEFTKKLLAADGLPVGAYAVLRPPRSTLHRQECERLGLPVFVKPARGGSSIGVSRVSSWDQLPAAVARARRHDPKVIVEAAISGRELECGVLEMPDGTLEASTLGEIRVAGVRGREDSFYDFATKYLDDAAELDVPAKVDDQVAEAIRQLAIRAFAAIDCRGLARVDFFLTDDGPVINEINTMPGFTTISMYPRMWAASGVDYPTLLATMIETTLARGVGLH
Sequence of Mtb DdlA (P9WP31 whole entry, looked up): as above

In the case of `NNC(=O)c1ccncc1` [INH, isoniazid], the “Reduction of MIC when combined with IMB-0283” value (Mtb H37Rv [1]; H37Rv, IMB-0283 at 0.125 μg/mL) is reported as “eightfold”, the “MIC when combined with IMB-0283” value (Mtb H37Rv [1]; H37Rv, IMB-0283 at 0.125 μg/mL (0.25 × MIC)) is reported as 0.016 µg/mL and the MIC (Mtb H37Rv [1]; [8]) is reported as 0.125 µg/mL (≈ 0.911 µM). The “Mtb load in mouse lungs” value (Mtb H37Rv [2]) was 3.29 log CFU/mL.

With `C[C@@H](N)C(=O)O` [D-Ala, D-alanine] the Kcat (DdlA) was 568.79 ± 48.93 min^–1 and the Vmax (DdlA; [9]) was 28.44 ± 2.444 μMmin^–1.

For `OC1(c2ccc(OC(F)F)cc2)C[N+](c2ccccc2)=C2CCCCN21` (centres unmarked) [IMB-0283], the Ki (Mtb DdlA; [10]) was 5.43 µM, the Ki (Mtb DdlA; [11]) was 4.44 µM and the Ki (Mtb DdlA; Ki for DdlA (D-Ala)) was 32.6 µM and 39.9 µM. For the same compound, the Inhibitory mode (Mtb DdlA; Lineweaver-Burk and Dixon plots) was “competed with both substrates of DdlA”, the IC50 (Mtb DdlA; mean of n = 3) was 6.16 µM and the IC50 (Mtb DdlA; printed in Figure 3B) was 7.62 µM. The MIC (Mtb H37Rv [1]; [8]) was 0.5 µg/mL, the MIC (clinical Mtb strains; range over clinical strains, read-out: MICs to several clinical strains) was 0.5 to 4 µg/mL and the MIC (clinical Mtb strains; strain FJ05060, S to INH, RMP, EMB, STR, CPM, KAN, OFX, read-out: MIC) was 0.5 µg/mL. It also gave an MIC (clinical Mtb strains; strain FJ05120, R to INH, RMP, read-out: MIC) of 2 µg/mL, an MIC (clinical Mtb strains; strain FJ05189, R to INH, RMP, read-out: MIC) of 1 µg/mL and an MIC (clinical Mtb strains; strain FJ05195, R to INH, RMP, EMB, STR, KAN, OFX, S to CPM, read-out: MIC) of 4 µg/mL. For the same compound, the MIC (clinical Mtb strains; strain FJ05349, S to INH, RMP, EMB, STR, CPM, KAN, OFX, read-out: MIC) was 0.5 µg/mL, the MIC (clinical Mtb strains; strain xz, R to INH, RMP, STR, CPM, OFX, S to EMB, KAN, read-out: MIC) was 4 µg/mL and the “Morphology of Mtb” value (Mtb H37Rv [3]; 12 h) was “typical long-rod morphology”. The “Morphology of Mtb” value (Mtb H37Rv [3]; 7 days) was “shrunken, shorter, and fragmented”, the “Mtb load in mouse lungs” value (Mtb H37Rv [2]) was 4.40 log CFU/mL and the TC50 (HepG2 cells [4]; human, 2 days) was 115.4 µg/mL. It also gave a TC50 [5] of 249.8 µg/mL, an SI [6] of 499.6 and an SI (HepG2 cells [7]) of 230.8. For the same compound, the SI index (HepG2 cells [7]; cell line not specified (HepG2 and Vero)) was “greater than 200”.

`Nc1ncnc2c1ncn2[C@@H]1O[C@H](COP(=O)(O)OP(=O)(O)OP(=O)(O)O)[C@@H](O)[C@H]1O` [ATP] was tested, and the Kcat (DdlA) was 405.8 min^–1 and 383.00 ± 14.14 min^–1, the Km (DdlA; [9]) was 360 ± 30.5 µM and the Vmax (DdlA; [9]) was 20.29 μMmin^–1 and 19.15 ± 0.705 μMmin^–1.

For (Mycobacterium tuberculosis H37Rv), the Vmax (C[C@@H](N)C(=O)O) was 28.4 µM/min and the kcat (C[C@@H](N)C(=O)O) was 9.48 s⁻¹.

For `CO[C@H]1/C=C/O[C@@]2(C)Oc3c(C)c(O)c4c(O)c(c(/C=N/N5CCN(C)CC5)c(O)c4c3C2=O)NC(=O)/C(C)=C\C=C\[C@H](C)[C@H](O)[C@@H](C)[C@@H](O)[C@@H](C)[C@H](OC(C)=O)[C@@H]1C` [RMP, rifampin], the “MIC when combined with IMB-0283” value (Mtb H37Rv [1]) was 0.016 µg/mL and the MIC (Mtb H37Rv [1]; H37RV) was 0.063 µg/mL (≈ 0.0766 µM).

`N[C@@H]1CON=C1O` [DCS, D-cycloserine, reference compound] was tested, and the Ki (Mtb DdlA; [10]) was 106 µM, the Ki (Mtb DdlA; [11]) was 107 µM and the Ki (Mtb DdlA; Ki for DdlA (D-Ala)) was 182 µM. For the same compound, the MIC (Mtb H37Rv [1]; [8]) was 16 µg/mL (≈ 157 µM), the “MICs to several clinical strains” value (clinical Mtb strains; range over clinical strains) was “did not show any inhibitory effect” and the “Mtb load in mouse lungs” value (Mtb H37Rv [2]) was “did not yield any such treatment efficacy; also recorded: did not yield any antibacterial activity; also recorded: showed no antibacterial activity”. The SI index (HepG2 cells [4]; human (HepG2) and green monkey (Vero)) was “about 80”, the SI [6] was 127.75 and the SI (HepG2 cells [7]) was 86.25.
